Measurements published in paper PMC8607422, “Development of a novel TLR8 agonist for cancer immunotherapy” (Molecular Biomedicine, 2020).

How the values were obtained:
hTLR7 = target: T1, hTLR7 (Homo sapiens, UniProt Q9NYK1); test: HEK-Blue hTLR7 SEAP reporter agonist assay; assay type: cell-based; conditions: HEK-Blue hTLR7 cells, highest concentration 50 μM
T1 construct: host or cells: HEK-Blue hTLR7
T1 sequence (Q9NYK1 27-1049): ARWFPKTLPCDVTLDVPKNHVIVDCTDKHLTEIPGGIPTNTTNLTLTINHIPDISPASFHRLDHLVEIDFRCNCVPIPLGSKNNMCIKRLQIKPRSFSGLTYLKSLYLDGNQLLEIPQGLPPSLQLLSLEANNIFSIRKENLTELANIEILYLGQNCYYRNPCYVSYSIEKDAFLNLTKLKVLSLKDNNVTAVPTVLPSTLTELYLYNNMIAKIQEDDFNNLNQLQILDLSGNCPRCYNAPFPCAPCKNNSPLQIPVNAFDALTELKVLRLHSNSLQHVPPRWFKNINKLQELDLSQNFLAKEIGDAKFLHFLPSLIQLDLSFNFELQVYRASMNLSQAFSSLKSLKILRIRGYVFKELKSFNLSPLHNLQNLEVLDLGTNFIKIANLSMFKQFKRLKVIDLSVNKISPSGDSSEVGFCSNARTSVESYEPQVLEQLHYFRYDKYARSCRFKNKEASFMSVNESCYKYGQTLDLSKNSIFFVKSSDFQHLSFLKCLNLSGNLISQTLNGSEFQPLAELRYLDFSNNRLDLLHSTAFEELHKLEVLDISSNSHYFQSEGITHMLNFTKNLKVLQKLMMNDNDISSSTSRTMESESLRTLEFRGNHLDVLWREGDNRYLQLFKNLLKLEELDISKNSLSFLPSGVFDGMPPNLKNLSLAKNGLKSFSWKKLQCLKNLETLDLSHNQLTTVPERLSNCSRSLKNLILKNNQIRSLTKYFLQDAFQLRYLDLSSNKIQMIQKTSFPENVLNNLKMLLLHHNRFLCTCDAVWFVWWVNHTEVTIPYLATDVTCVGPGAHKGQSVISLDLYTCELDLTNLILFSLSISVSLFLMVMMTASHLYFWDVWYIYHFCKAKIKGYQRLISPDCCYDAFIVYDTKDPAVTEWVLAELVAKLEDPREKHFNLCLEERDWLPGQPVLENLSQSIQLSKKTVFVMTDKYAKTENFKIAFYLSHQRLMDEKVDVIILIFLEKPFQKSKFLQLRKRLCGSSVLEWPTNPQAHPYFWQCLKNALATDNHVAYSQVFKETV
Description: HEK-Blue™ hTLR4, 7, 8 and 9 cell lines were purchased from InvivoGen (Hong Kong). The cells express the human TLR gene and NF-κB/AP-1-inducible SEAP (secreted embryonic alkaline phosphatase) reporter gene. SEAP levels produced upon TLR stimulation can be determined by QUANTI-Blue™. In the cell-based assay, the main reagents used were QUANTI-Blue™ (InvivoGen) and ATPlite 1 Step (Perkin Elmer). The main instruments used were the microplate reader SpectraMax 340PC (Molecular Device) and Envision (Perkin Elmer). Motolimod and DN052 were synthesized in house. […] The compounds were in 10 mM stock solution in DMSO and stored at − 20°C. The compounds were serially diluted in the concentration range from 0.5 nM to 15 μM (up to 50 μM in the hTLR4, hTLR7 and hTLR9 assays) and added to 96-well plates. DMSO was used as the negative control. LPS-EK, R848, motolimod and ODN2006 were used as the positive control for TLR4, 7, 8 and 9, respectively. The cells were cultured and treated with the compounds at 37°C, 5%CO2 for 24 h. […] After 1.5 h of incubation, the optical density was measured using the spectrophotometer at 650 nm in the microplate reader of SpectraMax 340PC. The cell viability of each well was determined using ATPlite 1 Step following the manufacturer’s instruction. The luminescence signal in each well of plates was measured in the microplate reader of Envision.

CYP 2C9 = target: T2, CYP 2C9 (Homo sapiens, UniProt P11712); test: CYP inhibition assay in human liver microsomes; assay type: in vitro ADME
T2 construct: using human liver microsomes (BD Gentest); tissue BD Gentest; host or cells: human liver microsomes
T2 sequence (P11712 whole entry): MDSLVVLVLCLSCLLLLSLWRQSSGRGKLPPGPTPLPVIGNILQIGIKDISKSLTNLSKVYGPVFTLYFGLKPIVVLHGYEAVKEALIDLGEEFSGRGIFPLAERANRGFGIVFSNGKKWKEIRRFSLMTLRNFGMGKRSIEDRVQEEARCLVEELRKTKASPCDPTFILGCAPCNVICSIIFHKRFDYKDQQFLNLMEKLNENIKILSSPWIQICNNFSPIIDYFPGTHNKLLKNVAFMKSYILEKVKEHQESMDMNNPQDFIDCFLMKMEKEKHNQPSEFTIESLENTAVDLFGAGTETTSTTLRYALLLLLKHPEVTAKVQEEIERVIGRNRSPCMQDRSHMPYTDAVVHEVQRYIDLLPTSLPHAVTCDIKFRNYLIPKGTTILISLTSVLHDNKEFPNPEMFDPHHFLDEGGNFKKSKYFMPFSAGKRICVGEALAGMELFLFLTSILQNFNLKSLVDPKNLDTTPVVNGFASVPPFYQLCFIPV
Protocol: (§1) CYP inhibition assay was conducted to evaluate the inhibitive potential of the compounds on CYP 1A2, 2C9, 2C19, 2D6 and 3A4 using human liver microsomes (BD Gentest). Curve-fitting was performed to calculate IC50 using a Sigmoidal (non-linear) dose-response model using GraphPad Prism (GraphPad Software Inc.).

CYP 1A2 = target: T3, CYP 1A2 (Homo sapiens, UniProt P05177); test: CYP inhibition assay in human liver microsomes; assay type: in vitro ADME
T3 construct: using human liver microsomes (BD Gentest); tissue BD Gentest; host or cells: human liver microsomes
T3 sequence (P05177 1-516): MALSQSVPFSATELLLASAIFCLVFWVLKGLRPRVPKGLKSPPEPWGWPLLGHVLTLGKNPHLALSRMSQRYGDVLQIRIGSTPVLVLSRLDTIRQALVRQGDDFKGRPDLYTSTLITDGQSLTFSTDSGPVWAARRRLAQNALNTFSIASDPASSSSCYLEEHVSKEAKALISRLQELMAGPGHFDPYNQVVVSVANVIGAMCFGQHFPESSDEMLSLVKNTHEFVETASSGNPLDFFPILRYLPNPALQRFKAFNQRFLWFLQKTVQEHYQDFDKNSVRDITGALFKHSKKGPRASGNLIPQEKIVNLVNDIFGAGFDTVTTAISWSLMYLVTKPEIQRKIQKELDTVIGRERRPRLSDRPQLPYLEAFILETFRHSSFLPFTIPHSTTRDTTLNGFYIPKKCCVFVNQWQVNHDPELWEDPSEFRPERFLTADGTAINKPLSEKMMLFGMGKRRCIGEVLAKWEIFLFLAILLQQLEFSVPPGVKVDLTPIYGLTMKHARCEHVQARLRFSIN
Protocol: as §1

CYP 2C19 = target: T4, CYP 2C19 (Homo sapiens, UniProt P33261); test: CYP inhibition assay in human liver microsomes; assay type: in vitro ADME
T4 construct: using human liver microsomes (BD Gentest); tissue BD Gentest; host or cells: human liver microsomes
T4 sequence (P33261 whole entry): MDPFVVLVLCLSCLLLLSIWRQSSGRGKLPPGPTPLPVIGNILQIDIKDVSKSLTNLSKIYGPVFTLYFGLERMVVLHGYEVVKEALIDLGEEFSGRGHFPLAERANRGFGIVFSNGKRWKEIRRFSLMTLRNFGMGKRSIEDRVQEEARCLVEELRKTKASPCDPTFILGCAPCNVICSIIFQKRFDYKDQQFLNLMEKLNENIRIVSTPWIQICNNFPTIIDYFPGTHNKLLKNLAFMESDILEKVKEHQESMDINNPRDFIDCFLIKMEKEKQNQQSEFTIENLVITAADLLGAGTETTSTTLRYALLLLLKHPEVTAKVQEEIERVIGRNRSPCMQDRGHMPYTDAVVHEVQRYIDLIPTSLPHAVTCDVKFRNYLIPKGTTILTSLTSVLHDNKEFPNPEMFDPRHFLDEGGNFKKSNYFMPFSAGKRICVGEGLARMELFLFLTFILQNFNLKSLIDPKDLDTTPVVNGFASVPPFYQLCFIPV
Protocol: as §1

CYP 2D6 = target: T5, CYP 2D6 (Homo sapiens, UniProt P10635); test: CYP inhibition assay in human liver microsomes; assay type: in vitro ADME
T5 construct: using human liver microsomes (BD Gentest); tissue BD Gentest; host or cells: human liver microsomes
T5 sequence (P10635 whole entry): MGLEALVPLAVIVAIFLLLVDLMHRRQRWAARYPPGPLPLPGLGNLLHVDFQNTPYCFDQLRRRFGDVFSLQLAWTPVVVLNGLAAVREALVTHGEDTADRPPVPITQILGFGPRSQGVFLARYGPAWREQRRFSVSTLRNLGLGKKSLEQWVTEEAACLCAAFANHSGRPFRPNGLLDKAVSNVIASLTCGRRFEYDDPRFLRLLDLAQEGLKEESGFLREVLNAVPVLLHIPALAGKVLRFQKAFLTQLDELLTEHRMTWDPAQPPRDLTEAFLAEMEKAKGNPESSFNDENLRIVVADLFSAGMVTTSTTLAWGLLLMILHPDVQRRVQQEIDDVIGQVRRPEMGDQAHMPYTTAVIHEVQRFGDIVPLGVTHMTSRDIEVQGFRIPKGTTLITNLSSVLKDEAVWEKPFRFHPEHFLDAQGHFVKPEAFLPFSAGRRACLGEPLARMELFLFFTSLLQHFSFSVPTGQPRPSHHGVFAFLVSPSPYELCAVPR
Protocol: as §1

CYP 3A4 = target: T6, CYP 3A4 (Homo sapiens, UniProt P08684); test: CYP inhibition assay in human liver microsomes; assay type: in vitro ADME
T6 construct: using human liver microsomes (BD Gentest); tissue BD Gentest; host or cells: human liver microsomes
T6 sequence (P08684 whole entry): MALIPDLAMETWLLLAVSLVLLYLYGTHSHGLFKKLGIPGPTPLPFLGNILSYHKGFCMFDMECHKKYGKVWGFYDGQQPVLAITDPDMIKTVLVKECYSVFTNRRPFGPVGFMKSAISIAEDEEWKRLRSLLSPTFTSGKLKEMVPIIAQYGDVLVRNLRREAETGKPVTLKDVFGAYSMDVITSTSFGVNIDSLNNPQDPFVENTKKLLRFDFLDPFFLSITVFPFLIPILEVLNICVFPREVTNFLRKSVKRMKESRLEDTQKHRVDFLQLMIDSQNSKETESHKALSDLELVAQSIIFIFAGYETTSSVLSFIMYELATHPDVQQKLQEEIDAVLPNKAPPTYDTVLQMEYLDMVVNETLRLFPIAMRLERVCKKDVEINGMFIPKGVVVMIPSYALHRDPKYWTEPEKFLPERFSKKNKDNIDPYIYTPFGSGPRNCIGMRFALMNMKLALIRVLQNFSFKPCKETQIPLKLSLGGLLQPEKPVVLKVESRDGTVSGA
Protocol: as §1

EC50 (hTLR7): 19.8 µM
IC50 (CYP 2C9): > 10 µM
IC50 (CYP 1A2): > 10 µM
IC50 (CYP 2C19): > 10 µM
IC50 (CYP 2D6): > 10 µM
IC50 (CYP 3A4): > 10 µM
Structure (SMILES): CCCN(CCC)C(=O)C1=Cc2ccc(-c3ccc(C(=O)N4CCCC4)cc3)cc2N=C(N)C1 [Motolimod, motolimod]
